The record followed here is PubChem BioAssay AID1996.

Values after ≈ are worked out from the molar mass of the structure shown.

The conditions of this data set: buffer; pH 7.4; 200.0 µM.
As usually defined, the kinetic solubility is the concentration staying in solution when a stock, usually in DMSO, is diluted into the medium. Consider `Cc1cccc(NC(=O)c2ccc3c(c2)OCCO3)n1`, for which the solubility (kinetic) worked out at 32.8 µg/mL (≈ 121 µM).
`O=S(=O)(CCN1CCCCC1)Oc1ccc(Cl)cc1Cl` had a solubility (kinetic) of 50.5 µg/mL (≈ 149 µM). This solubility kinetic lies about 1.5-fold higher than the previous one.
On to `CC(=O)Nc1ccc(N2CCN(Cc3ccccc3)CC2)cc1`, for which the solubility (kinetic) was determined as 43.5 µg/mL (≈ 141 µM).
For `Nc1ccccc1SCC(=O)Nc1nccs1`, the solubility (kinetic) was > 39.8 µg/mL.
`CCOc1ccc(C(=O)NCc2ccco2)cc1OC` displayed a solubility (kinetic) of 37.7 µg/mL (≈ 137 µM).
As to `C/C(=C/c1ccccc1)C(=O)N1CCC(C)CC1`, the kinetic solubility is > 36.5 µg/mL.
`O=S(=O)(Oc1ccccc1)c1cccnc1`: the kinetic solubility was determined as 29.4 µg/mL (≈ 125 µM).
To `N#CC(=C=[N-])c1nc2ccccc2nc1-[n+]1cccc(NC(=O)c2cccs2)c1` belongs 1.5 µg/mL (≈ 3.78 µM); to `NC(=O)CC[C@H](NC(=O)c1ccc(F)cc1)C(=O)N1CCN(Cc2ccc3c(c2)OCO3)CC1`, > 70.6 µg/mL.
As to `COc1ccc(C)cc1NC(=O)C(=O)N1CCCC1`, the solubility (kinetic) turned out to be 39.1 µg/mL (≈ 149 µM).
Regarding `COC(=O)c1ccccc1N=Cc1c(O)[nH]c(=O)[nH]c1=O`, the solubility (kinetic) is 8.4 µg/mL (≈ 29 µM).
To `COc1ccc(S(=O)(=O)NCCCN2CCCC2=O)c(OC)c1` belongs > 51.4 µg/mL; to `COC(=O)c1cc(C(=O)Nc2ccc(Cl)cn2)cc([N+](=O)[O-])c1`, 2.5 µg/mL (≈ 7.45 µM); to `Cc1ccc2c(c1)C1CN(C)CCC1N2S(=O)(=O)c1ccccc1F` (stereo not drawn), > 54.1 µg/mL.
As to `CCN1C(=O)/C(=C2\SC(N3CCOCC3)=NC2=O)c2ccccc21`, the solubility (kinetic) was determined as 0.9 µg/mL (≈ 2.62 µM).
Take `Cc1cc(=O)c2c([nH]1)c(C)cc1[nH]c(C)c(C)c12`: the kinetic solubility is > 36 µg/mL.
Take `CCCCc1c(O)nc(SCC(=O)N2CCCCC2)[nH]c1=O`: the solubility (kinetic) is > 48.8 µg/mL.
As to `NC1=NC2(CCCC2)N=C(Nc2ccccc2)N1`, the kinetic solubility was > 36.5 µg/mL.
`Cc1cc(C)nc(Nc2ccc(Br)cc2C(=O)O)n1.Cl`: the solubility (kinetic) is > 53.8 µg/mL.
To `Cc1ccccc1C(C)NS(=O)(=O)c1ccc2c(c1)OCCO2` (stereo not drawn) belongs > 50 µg/mL.
As for `N/C(=N\O)c1ccc([N+](=O)[O-])s1`, the kinetic solubility was > 28.1 µg/mL.
Take `Nc1cc(=O)[nH]c(SCC(=O)Nc2ccc3c(c2)CCC3)n1`: the kinetic solubility is 7.8 µg/mL (≈ 24.7 µM).
With `CC(O)CNCCCCOc1ccc(OCc2ccccc2)cc1` (stereo not drawn), the kinetic solubility was 40.7 µg/mL (≈ 124 µM).
With `CCCCOc1ccc(S(=O)(=O)N2CCCCC2)cc1` the figure was 1.1 µg/mL (≈ 3.7 µM).
Turning to `COc1ccc(CCNC(=O)c2ccc(Cl)nc2)cc1`, the kinetic solubility was 36.5 µg/mL (≈ 126 µM).
Regarding `CCN(C(=O)CSc1nc(C)c(C)c(C)n1)C1CCS(=O)(=O)C1` (stereo not drawn), the solubility (kinetic) was > 53.6 µg/mL.
Consider `C[n+]1c(-c2ccccc2)sc([S-])c1-c1ccccc1`, for which the kinetic solubility turned out to be 36 µg/mL (≈ 127 µM).
As to `O=C(c1cc(-c2ccccc2O)on1)N1CCOCC1`, the kinetic solubility is > 41.1 µg/mL.
Turning to `CCOC(=O)c1c(C)[nH]c(C(=O)OCC(=O)NCc2ccccc2)c1C`, the solubility (kinetic) stood at 4.5 µg/mL (≈ 12.6 µM).
`C/C(CC(=O)Nc1ccccn1)=N\NC(=O)c1cccc(C)c1`: the solubility (kinetic) was > 46.6 µg/mL.
To `CN(C)C(=O)CSc1nnc(Cc2ccc3c(c2)OCO3)o1` belongs > 48.2 µg/mL; to `Fc1c(F)c(F)c(NC2=NCCCCC2)c(F)c1F`, > 41.7 µg/mL.
Regarding `O=C(CN1c2cccc3cccc(c23)S1(=O)=O)Nc1ccccc1Br`, the kinetic solubility came out at 4.4 µg/mL (≈ 10.5 µM).
With `Cc1c(C(=O)Nc2ccc3c(c2)OCCO3)cnn1C` the figure was > 41 µg/mL; with `COc1ccc(CCNC(=O)C(=O)NCc2cccs2)cc1OC`, 21.4 µg/mL (≈ 61.4 µM); with `CCC1CCCCN1C(=O)CSc1nc(N)cc(N)n1` (stereo not drawn), 43.1 µg/mL (≈ 146 µM).
Regarding `Brc1ccc(-c2csc(N3CCCCCC3)n2)cc1`, the kinetic solubility was found to be 1.2 µg/mL (≈ 3.56 µM).
Consider `CC(=O)c1c(C)oc2ccc(NS(=O)(=O)c3ccccc3)cc12`, for which the solubility (kinetic) is < 0.7 µg/mL.
`Cc1ccc(NC(=O)c2cc(C)nc3ccccc23)c(C)c1` yielded a kinetic solubility of 27.1 µg/mL (≈ 93.3 µM).
`Cc1cccc(CN(C(=S)Nc2c(C)cccc2C)c2cccnc2)c1` came in with a solubility (kinetic) of 16.9 µg/mL (≈ 46.7 µM).
For `O=C(Nc1ccc(N2CCN(C(=O)c3cccs3)CC2)cc1)c1ccco1`, the kinetic solubility was determined as 1.6 µg/mL (≈ 4.19 µM). This solubility kinetic is about 11-fold lower than that of the compound before.
For `COc1ccc(C(=O)c2nc3ccccc3n2C(C)C)cc1`, the solubility (kinetic) came out at 22.3 µg/mL (≈ 75.8 µM).
In the case of `O=C(NC(=O)c1ccccc1)OCCN1C(=O)c2ccccc2C1=O`, the kinetic solubility is > 50.7 µg/mL.
For the compound `Cc1ccc(NC(=S)NC(=O)c2cncc(Br)c2)c(C)c1`, the solubility (kinetic) stood at 4.5 µg/mL (≈ 12.4 µM).
Turning to `Cc1nccn1CC(O)COc1ccc([N+](=O)[O-])cc1` (stereo not drawn), the kinetic solubility is > 41.6 µg/mL.
In turn, `Cc1noc(C)c1C(=O)Nc1nc2ccc(Cl)cc2s1` showed a kinetic solubility of 2.1 µg/mL (≈ 6.82 µM).
To `NS(=O)(=O)c1cccc(NC(=O)CCCC2CCCCC2)c1` belongs 8.8 µg/mL (≈ 27.1 µM).
`Cc1nc(-c2ccccn2)sc1C(=O)O`: the solubility (kinetic) is > 33 µg/mL.
Consider `C#CCOc1ccc(Cl)cc1/C=C1/C(=O)ON=C1C`, for which the kinetic solubility is > 41.4 µg/mL.
`O=C(Nc1ccc(OC(F)F)cc1)c1ccccn1` registered a kinetic solubility of 31.5 µg/mL (≈ 119 µM).
To `CC1CN(C(=S)Nc2ccccc2)CC(C)O1` (stereo not drawn) belongs 35.4 µg/mL (≈ 141 µM); to `COC(=O)CNC(=O)COC(=O)/C=C/c1ccc(F)cc1`, > 44.3 µg/mL.
In turn, `CC(CNC(=O)c1ccc(N)cc1)NC(=O)c1ccc(N)cc1` (stereo not drawn) returned a solubility (kinetic) of 42.8 µg/mL (≈ 137 µM).
Take `CCOc1ncccc1C(=O)OCC(=O)NCc1ccc2c(c1)OCO2`: the solubility (kinetic) was > 53.8 µg/mL.
With `COc1ccc(CC(=O)OC(C)C(=O)Nc2c(C)n(C)n(-c3ccccc3)c2=O)cc1OC` (stereo not drawn) the figure was > 68 µg/mL.
`COc1cccc(Oc2nc(N)ncc2[N+](=O)[O-])c1` yielded a kinetic solubility of 32.3 µg/mL (≈ 123 µM).
Take `Cc1cccc(NC(=S)N(CCN(C)C)Cc2cccs2)c1`: the kinetic solubility amounted to 46.7 µg/mL (≈ 140 µM).
`O=C(Nc1cccc(-c2nc3ccccc3o2)c1)c1cccnc1`: the solubility (kinetic) is 0.3 µg/mL (≈ 0.951 µM).
With `CCc1ccccc1NS(=O)(=O)Cc1ccccc1` the figure was 40.2 µg/mL (≈ 146 µM); with `COCC(=O)Nc1ccc(N2CCOCC2)c(S(=O)(=O)Nc2ccc(OC)cc2)c1`, > 65.3 µg/mL.
For `CCCCNc1c(N)n(CCC)c(=O)[nH]c1=O`, the kinetic solubility was > 36 µg/mL.
For the compound `CCOc1ccc(N2CC(C(=O)NCCc3ccc(F)cc3)CC2=O)cc1` (stereo not drawn), the kinetic solubility is 30.8 µg/mL (≈ 83.1 µM).
With `COc1ccc(CCC(C)NCc2cccc(Br)c2)cc1` (stereo not drawn) the figure was 34.1 µg/mL (≈ 97.9 µM); with `CC(NC(=O)c1ccco1)C(=O)OCc1cccc(C(F)(F)F)c1` (stereo not drawn), > 51.2 µg/mL; with `CC(OC(=O)c1cn(C)c2ccccc12)C(=O)N1CCCC1` (stereo not drawn), > 45.1 µg/mL.
Regarding `Cc1ccc2nc(SCC(=O)Nc3nonc3C)[nH]c2c1`, the solubility (kinetic) is > 45.5 µg/mL.
Take `COc1ccc(S(=O)(=O)N2CC(C)N(C(=O)N3CCOCC3)C2)cc1` (stereo not drawn): the kinetic solubility was > 55.4 µg/mL.
`Cc1ccc(NC2Sc3ccccc3NC2=O)cc1` (stereo not drawn) yielded a kinetic solubility of 9.6 µg/mL (≈ 35.5 µM).
`CCOC(=O)C1(Cc2ccccc2C)CCCN(C(=O)CCC(=O)OC)C1` (stereo not drawn): the kinetic solubility was 53 µg/mL (≈ 141 µM).
`CCOC(=O)c1ccc(NC(=O)CNC(=O)c2ccco2)cc1` displayed a solubility (kinetic) of 10.2 µg/mL (≈ 32.2 µM).
`O=C(C1CCCN1S(=O)(=O)c1ccc(Cl)cc1)N1CCN(c2ccccc2)CC1` (stereo not drawn): the kinetic solubility came to 15.3 µg/mL (≈ 35.3 µM).
As for `O=C(Nc1ccc(N2C(=O)CCC2=O)cc1Cl)c1cccs1`, the kinetic solubility was > 50.2 µg/mL.
With `CC(C)N(C(=O)Cn1cnc2cc([N+](=O)[O-])ccc2c1=O)C(C)C`, the kinetic solubility was > 49.9 µg/mL.
As for `CN(CC(=O)Nc1ccc(Cl)c(Cl)c1)C(=O)C1CCC1`, the solubility (kinetic) was > 47.3 µg/mL.
To `CC(NCC(O)c1ccc([N+](=O)[O-])cc1)C12CC3CC(CC(C3)C1)C2` (stereo not drawn) belongs 38.3 µg/mL (≈ 111 µM); to `O=C(NCc1ccco1)c1ccc(NS(=O)(=O)c2cccc(F)c2)cc1`, > 56.2 µg/mL; to `O=S(=O)(NCc1ccccc1)c1ccc2ccccc2c1`, 1.1 µg/mL (≈ 3.7 µM).
On to `COc1ccccc1N1CCN(Cc2cnc(-c3ccccc3)[nH]2)CC1`, for which the solubility (kinetic) was 15.1 µg/mL (≈ 43.3 µM).
Take `Cc1cc(C)nc(NC(=O)c2ccccc2O)n1`: the kinetic solubility is > 36.5 µg/mL.
In turn, `COc1ccccc1CNC(=O)Cn1c(=O)oc2cc(Cl)ccc21` returned a solubility (kinetic) of 1.7 µg/mL (≈ 4.9 µM).
As to `Cc1ccc(S(=O)(=O)NCc2ccncc2)cc1C`, the kinetic solubility is > 41.5 µg/mL.
In the case of `O=c1c(Cc2ccc(Cl)cc2)c(O)ccn1Cc1cccs1`, the solubility (kinetic) came to 4.6 µg/mL (≈ 13.9 µM).
To `COc1ccccc1C1CCN(Cc2ccccc2Cl)CC1` belongs 3.6 µg/mL (≈ 11.4 µM); to `Cc1cccc(NC(=S)NC23CN4CN(CN(C4)C2)C3)c1C`, 46.8 µg/mL (≈ 147 µM).
On to `CCOc1ccc(Nc2nc(N)c([N+](=O)[O-])c(NCc3ccccc3)n2)cc1`, for which the solubility (kinetic) was < 0.1 µg/mL.
`c1ccc(CCNc2nc(-c3ccccn3)nc3ccccc23)cc1` had a kinetic solubility of 31.4 µg/mL (≈ 96.2 µM).
With `COc1ccc(C(=O)NCCNC(=O)c2ccccn2)cc1`, the solubility (kinetic) is > 44.9 µg/mL.
With `CCN(CC)CCC/C(=N\O)C(O)(c1ccccc1)c1ccccc1` the figure was > 51.1 µg/mL; with `CCc1ccccc1OCCCN1CCCC1.O=C(O)C(=O)O`, 43.9 µg/mL; with `CC(=O)Nc1ccc2c(c1)ncn2-c1ccc(C)cc1`, 38.8 µg/mL (≈ 146 µM).
Compound `Cc1ccc(O)c(Nc2ncnc3ccccc23)c1.Cl` showed a kinetic solubility of 4.5 µg/mL.
To `COc1ccc(N2C(=O)c3ccccc3C2O)cc1` (stereo not drawn) belongs > 38.3 µg/mL.
Compound `COc1ccc(C(=O)N2CCCc3ccccc32)cc1OC` came in with a kinetic solubility of 32.4 µg/mL (≈ 109 µM).
In turn, `CN(Cc1ccccc1)C(=O)COC(=O)CCC(=O)c1ccc(Cl)cc1` gave a kinetic solubility of 9.6 µg/mL (≈ 25.7 µM).
Take `CN(Cc1ccccc1)C(=O)Nc1ccc(Cl)cc1`: the solubility (kinetic) was determined as 38.5 µg/mL (≈ 140 µM).
`CCN(C(=O)COC(=O)/C=C/c1ccco1)C1CCCCC1` returned a solubility (kinetic) of 39.1 µg/mL (≈ 128 µM). This solubility kinetic and that of the compound before are within 1.5-fold of each other.
With `O=C(C1CC1)N1CCc2sccc2C1c1ccc(Cl)cc1` (stereo not drawn), the kinetic solubility was < 0.7 µg/mL.
As to `COc1ccc(CC(=O)OCC(=O)NC2CCCCC2)cc1OC`, the kinetic solubility was > 50.3 µg/mL.
For `CC(=O)c1ccc(OC(C)C(=O)Nc2cccc(S(=O)(=O)NCc3ccco3)c2)cc1` (stereo not drawn), the kinetic solubility was > 66.4 µg/mL.
`CC(C)c1ccc(NC(=O)CCCC(=O)NCCc2ccccc2)cc1` showed a solubility (kinetic) of 6 µg/mL (≈ 17 µM).
With `COc1ccc(C(=O)/C=C/Nc2ccc(S(N)(=O)=O)cc2)cc1OC` the figure was 7.9 µg/mL (≈ 21.8 µM); with `Fc1ccccc1CNC(=S)NCc1ccc(Cl)cc1`, 3.3 µg/mL (≈ 10.7 µM); with `O=C(CCc1nc(-c2ccccn2)no1)NCc1ccc2c(c1)OCO2`, 52.5 µg/mL (≈ 149 µM).
